In article PMC12362615, “Design, Synthesis, and Cellular Characterization of a New Class of IPMK Kinase Inhibitors” (Journal of Medicinal Chemistry, 2025):
Values joined by “and” are separate entries in the source; they are usually repeats but may differ in a detail not shown here. Equal values may be shown once. Read-outs that look alike come from different tables or passages of the source.

Assays:
[1] = target: T1, purified recombinant human IPMK kinase domain (Homo sapiens, UniProt Q8NFU5); assay: IPMK IC50 determination, Kinase-Glo assay; assay type: biochemical
T1 sequence (Q8NFU5 with tags, fused parts or gaps): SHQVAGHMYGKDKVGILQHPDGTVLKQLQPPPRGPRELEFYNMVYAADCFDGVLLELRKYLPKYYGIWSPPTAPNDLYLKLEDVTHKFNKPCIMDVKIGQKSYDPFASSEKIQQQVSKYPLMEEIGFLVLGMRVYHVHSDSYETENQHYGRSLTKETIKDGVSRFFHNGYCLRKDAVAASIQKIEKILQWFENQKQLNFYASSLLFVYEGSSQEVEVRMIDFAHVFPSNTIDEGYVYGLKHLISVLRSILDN
Description: (§1) These assay conditions were optimized with respect to reaction time, IPMK enzyme concentration, and IP3 concentration to determine the IC50 values for these ATP-competitive compounds.

[2] = target: T2, purified recombinant human IP6K2 kinase domain (Homo sapiens, UniProt Q9UHH9); assay: IP6K2 IC50 determination, malachite green Pi release assay; assay type: biochemical; settings: for IP6K2/IPMK: Table S1, ratio of IC50 values; for IC50: supplementary csv
T2 sequence (Q9UHH9 1-426): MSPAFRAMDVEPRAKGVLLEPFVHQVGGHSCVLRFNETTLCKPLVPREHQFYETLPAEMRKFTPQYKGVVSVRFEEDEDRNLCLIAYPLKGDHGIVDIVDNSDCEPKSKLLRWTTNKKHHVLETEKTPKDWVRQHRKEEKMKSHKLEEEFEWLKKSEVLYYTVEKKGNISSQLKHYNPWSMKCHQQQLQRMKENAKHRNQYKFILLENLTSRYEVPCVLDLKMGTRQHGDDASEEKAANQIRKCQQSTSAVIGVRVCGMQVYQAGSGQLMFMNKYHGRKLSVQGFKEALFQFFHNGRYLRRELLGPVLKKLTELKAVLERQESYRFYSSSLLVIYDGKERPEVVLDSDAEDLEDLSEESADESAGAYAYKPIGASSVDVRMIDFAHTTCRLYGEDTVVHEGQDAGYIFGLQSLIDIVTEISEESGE
Method: IP6K2 IC50 values were determined using the purified recombinant human IP6K2 kinase domain expressed in a 384-well clear polystyrene plate (VWR 82051-264). This human IP6K2 kinase domain (100 nM) was used at 37 °C in 50 μL reaction mixtures containing 5.0 μM human Dipp1, 50 mM Tris (pH 6.9), 10 mM MgCl2, 0.02% Triton X-100, 25 μM InsP6, and 50 μM ATP for 30 min. Pi release was determined with a malachite green colorimetric assay. Reactions were quenched by the addition of 12.5 μL of phosphate detection reagent (MAK3071KT, Sigma-Aldrich). Pi release was quantified from the absorbance at 620 nm by using appropriate standards.

[3] = Pharmacokinetic studies in mice; assay type: in vivo, male CD1 mice; settings: IV, 3 mg/kg; for AUC(0-t) / Cmax / clearance / half-life / Vd: male, CD1, mouse, plasma; for Vd: read-out: Vss
Method: All the procedures related to animal handling, care, and treatment in this study were performed according to guidelines approved by the Institutional Animal Care and Use Committee (IACUC) of Pharmaron (PK-R-06012023 and PK-M-07182023), following the guidance of the Association for Assessment and Accreditation of Laboratory Animal Care (AAALAC). A group of 3 male CD1 mice (2 for exploratory PK) were dosed intravenously (IV) or intraperitoneally (IP) with a solution formulation of the tested compounds in 10% NMP, 5% Solutol in normal saline (v/v/v, 10:5:85). From each mouse, blood samples ([…]) were collected from the orbital vein such that samples were obtained at 0.083, 0.25, 0.5, 1, 2, 4, 8, and 24 h post dose. At each time point, blood samples were collected from three mice in labeled microcentrifuge tubes containing EDTA-K2 as an anticoagulant. Plasma samples were separated by centrifugation of whole blood and stored at −75 ± 15 °C until bioanalysis. All samples were processed for analysis by precipitation using acetonitrile (ACN) and analyzed with a fit-for-purpose LC/MS/MS method (the below quantifiable limit (BLOQ) was 5.0 ng/mL). Pharmacokinetic parameters were calculated by a noncompartmental analysis model using WinNonlin 8.3.

[4] = tested on: purified recombinant human IPMK kinase domain; assay: IPMK IC50 determination, Kinase-Glo assay; assay type: biochemical; settings: for decrease of inhibitory activity toward IPMK compared to 1: compared to compound 1
Description: as §1

[5] = tested on: human U251-MG glioblastoma cells; assay: CyQuant cell count / proliferation assay; assay type: cell-based; settings: 400 nM, 48 h, vs DMSO
Method: 1 Compound 1 inhibits human U251 glioblastoma cell growth and labeled inositol phosphate levels. (A) Schematic of inositol phosphate metabolism. (B) Chemical structure of compound 1, indicating moiety A (blue highlight), the core (gray highlight), and moiety B (red highlight), and the IC50 value as determined by the kinase-GLO assay. (C) CyQuant cell count assay of 10,000 human U251-MG glioblastoma cells seeded per well, treated for 48 h with DMSO vehicle or 400 nM compound 1 (n = 8, ***p = 0.0046, unpaired t test). (D) HPLC analysis of ^3H-inositol phosphates from U251-MG cells treated with 400 nM compound 1 (red bars) or DMSO (blue bars) and metabolically labeled with ^3H-inositol for 48 h, expressed as the percentage of the inositol peak from the HPLC for InsP3, InsP4, InsP5, and InsP6, as indicated, *p < 0.05 by unpaired t test Bonferroni corrected for multiple comparisons. (E) Same data as in (D) replotted with a nonzero y-axis to facilitate visualizing differences between DMSO vs. compound treatment for each indicated inositol phosphate species, *p < 0.05 by unpaired t test Bonferroni corrected for multiple comparisons.
Error represents the standard error from 3 independent assays. (B) CyQuant cellular proliferation assay of 10,000 human U251-MG glioblastoma cells seeded per well, treated for 48 h with DMSO vehicle or 10 μM 14 (n = 8, ****p adj < 0.0001 by one-way ANOVA, Dunnett’s corrected; *p < 0.05 by unpaired t test). (C) HPLC analysis of ^3H-inositol phosphates from U251-MG cells treated with 10 μM compound 14 (red bars) or DMSO (blue bars) and metabolically labeled with ^3H-inositol for 48 h, expressed as a percentage of all the peaks detectable from the HPLC, *p < 0.05, **p < 0.01, ***p < 0.001 by unpaired t test compared to DMSO-treated control for all remaining panels, n = 3. (D) Same as (C) but expressed as a percentage of the inositol HPLC peak, n = 3. (E) Same as C but expressed as a percentage of all the inositol phosphate peaks combined from the HPLC, n = 3.

[6] = tested on: inositol phosphate levels in U251-MG cells; assay: 3H-inositol metabolic labeling and HPLC of inositol phosphates; assay type: cell-based, human; settings: 400 nM, 48 h, vs DMSO
Method: Human U251-MG glioblastoma cells (ECACC 09063001) were grown in DMEM supplemented with 10% FBS. The medium was changed to inositol-free DMEM, and cells were inositol-starved for 1–3 days. Cells were maintained in inositol-free DMEM medium, treated with the indicated inhibitor or DMSO for 1–2.5 h, and supplemented with 100 μCi ^3H-inositol (PerkinElmer) for 48 or 72 h, as indicated on each figure. Cells were then washed in PBS and lysed in 200 μL HCl (0.5 M), 250 μL of MeOH was added to each well of a 6-well plate (approximately 10^6 cells), followed by 125 μL of 2 M KCl. Lysates were scraped and sonicated on ice for three 1 min cycles. Inositol phosphate (IP) extracts were cleaned of lipids by adding 250 μL of CHCl3, vortexing and centrifuging samples for 2 min at 5000 rpm to separate upper aqueous and lower organic phases, upper phase contains soluble IPs. This extraction was repeated once. Samples were dried in a SpeedVac, resuspended in 10 mM ammonium phosphate (pH= 3.5), and filtered. HPLC separation and detection of the inositol species on the upper phase used a Partisphere SAX 4.6 mm × 250 mm column, eluted with 10 mM (buffer A) to 1.3 M (buffer B) ammonium phosphate (pH = 3.8) and online flow scintillation analyzer (FSA, PerkinElmer). Elution of [^32P]-labeled IP4, IP5, and IP6 standards confirmed the identity of each peak off the HPLC. Quantification represents three biologically independent metabolic labeling samples with error representing the standard deviation of the mean.

Solubility = assay type: physicochemical
[7] = Kinase-Glo assay, 12.5 μM Ins(1,4,5)P3, 10 μM ATP, read-out: IC50 toward recombinant human IPMK
[8] = supplementary csv, read-out: IPMK IC50

Row | Structure (SMILES) | IC50 [1, 7] | IC50 [1, 8] [nM] | IP6K2/IPMK [2] | IC50 [2] [nM] | AUC(0-t) [3] [µM·h] | Cmax [3] [µM] | clearance [3] [mL/min/kg] | half-life [3] [h] | Vd [3] [L/kg] | also measured
1 | O=C(Nc1cccc(-c2onc3ccc(-c4nnn[nH]4)cc23)c1)C1CC1 [Compound 11, N-(3-(5-(1H-Tetrazol-5-yl)benzo[c]isoxazol-3-yl)phenyl)cyclopropanecarboxamide] | 30 ± 1.7 nM | 30.2 ± 1.7 | 3.5 | 107 ± 64.4 | 19.4 | 66.6 | 7.52 | 1.09 | 0.21 | –
2 | Cc1cc(C)cc(-c2onc3ccc([C@H]4C[C@@H]4C(=O)O)cc23)c1 (racemic) [Compound 2, (±)-trans-2-(3-(3,5-Dimethylphenyl)benzo[c]isoxazol-5-yl)cyclopropane-1-carboxylic acid] | – | 166 ± 19.6 | 1.6 | 265 ± 20 | – | – | – | – | – | decrease of inhibitory activity toward IPMK compared to 1 [4]: 6 fold
3 | Clc1cnc(Oc2cccc(-c3onc4ccc(-c5nnn[nH]5)cc34)c2)c(Cl)c1 [Compound 13, 3-(3-((3,5-Dichloropyridin-2-yl)oxy)phenyl)-5-(1H-tetrazol-5-yl)benzo[c]isoxazole] | – | 72.1 ± 5.2 | 1.8 | 129 ± 44.1 | 7.7 | 50.5 | 15.5 | 2.01 | 0.27 | Vss (L/kg) [3]: increased
4 | Cc1cc(C)cc(-c2onc3ccc(-c4nnn[nH]4)cc23)c1 [Compound 4, 3-(3,5-Dimethylphenyl)-5-(1H-tetrazol-5-yl)benzo[c]isoxazole] | 25 ± 1.6 nM | 24.7 ± 1.6 | 4.6 | 113 ± 69.5 | – | – | – | – | – | improved potency toward IPMK compared to compound 3 ([4]; compared to compound 3): 9 fold; solubility compared to compound 3 (Solubility): improved
5 | O=C(Nc1ccc(-c2onc3ccc(-c4nnn[nH]4)cc23)cc1)C1CC1 [Compound 10, N-(4-(5-(1H-Tetrazol-5-yl)benzo[c]isoxazol-3-yl)phenyl)cyclopropanecarboxamide] | 58 ± 3.4 nM | 58.2 ± 3.4 | 5.1 | 297 ± 141 | – | – | – | – | – | –
6 | c1ccc(-c2onc3ccc(-c4nnn[nH]4)cc23)cc1 [Compound 6, 3-Phenyl-5-(1H-tetrazol-5-yl)benzo[c]isoxazole] | – | 36 ± 5.5 | 3.5 | 125 ± 66.2 | – | – | – | – | – | –
7 | c1cc(OC2CCNCC2)cc(-c2onc3ccc(-c4nnn[nH]4)cc23)c1 [Compound 12, 3-(3-(Piperidin-4-yloxy)phenyl)-5-(1H-tetrazol-5-yl)benzo[c]isoxazole] | 31 ± 4 nM | 31.3 ± 4 | 4.9 | 153 ± 79.8 | 10.8 | 44 | 11.8 | 1.29 | 0.23 | –

The next lines start with results.

Row | IC50 [1, 7] | IC50 [1, 8] [nM] | IP6K2/IPMK [2] | IC50 [2] [nM] | AUC(0-t) [3] [µM·h] | Cmax [3] [µM] | clearance [3] [mL/min/kg] | half-life [3] [h] | Vd [3] [L/kg] | Structure (SMILES) | also measured
8 | – | 215 ± 37.5 | – | – | – | – | – | – | – | Cc1cc(C)cc(-c2onc3ccc(C(=O)O)cc23)c1 [Compound 3] | decrease of inhibitory activity toward IPMK compared to 1 [4]: 8 fold
9 | 26 nM and 26.2 nM | – | 9.5 | 248 ± 119 | – | – | – | – | – | Cc1cc(C)cc(-c2onc3ccc(/C=C/C(=O)O)cc23)c1 [Compound 1, (E)-3-(3-(3,5-Dimethylphenyl)benzo[c]isoxazol-5-yl)acrylic Acid] | cell number, CyQuant DNA content assay [5]: significant decrease in cell number; accumulation of InsP4 [6]: significantly decreased; accumulation of InsP5 [6]: significantly decreased; accumulation of InsP6 [6]: significantly decreased
10 | 19 ± 1.4 nM | 18.6 ± 1.4 | 7.8 | 146 ± 97.1 | – | – | – | – | – | FC(F)(F)c1ccc(-c2onc3ccc(-c4nnn[nH]4)cc23)cc1 [Compound 7, 5-(1H-Tetrazol-5-yl)-3-(4-(trifluoromethyl)phenyl)benzo[c]isoxazole] | –
11 | 18 ± 1.6 nM | 18.3 ± 1.6 | 5.0 | 91.7 ± 50.9 | 46.9 | 33 | 3.15 | 0.92 | 0.26 | FC(F)(F)Oc1ccc(-c2onc3ccc(-c4nnn[nH]4)cc23)cc1 [Compound 8, 5-(1H-Tetrazol-5-yl)-3-(4-(trifluoromethoxy)phenyl)benzo[c]isoxazole] | –
12 | – | 185 ± 15.5 | 5.1 | 942 ± 348 | – | – | – | – | – | c1ccc(Oc2ccc(-c3onc4ccc(-c5nnn[nH]5)cc34)cc2)cc1 [Compound 9, 3-(4-Phenoxyphenyl)-5-(1H-tetrazol-5-yl)benzo[c]isoxazole] | –
